Assay results: article PMC7763263, “Parameters for Irreversible Inactivation of Monoamine Oxidase” (Molecules, 2020)
Like-named read-outs stand apart in the source and are kept apart here. Marks after values point to notes of the source that are not given here.

Assays:
MAO = conditions: cited from earlier work
purified human MAO-A = biological target: T1, purified human MAO-A (Homo sapiens, UniProt P21397); assay: Anaerobic spectral kinetics of flavin reduction and adduct formation (stopped-flow / timed spectra); format: biochemical; conditions: for rate of anaerobic reduction of FAD (absorbance decrease at 495 nm) / rate of adduct formation (absorbance increase at 410 nm): purified MAO-A
T1 construct: made in house; host or cells: Saccharomyces cerevisiae
T1 sequence (P21397 1-527): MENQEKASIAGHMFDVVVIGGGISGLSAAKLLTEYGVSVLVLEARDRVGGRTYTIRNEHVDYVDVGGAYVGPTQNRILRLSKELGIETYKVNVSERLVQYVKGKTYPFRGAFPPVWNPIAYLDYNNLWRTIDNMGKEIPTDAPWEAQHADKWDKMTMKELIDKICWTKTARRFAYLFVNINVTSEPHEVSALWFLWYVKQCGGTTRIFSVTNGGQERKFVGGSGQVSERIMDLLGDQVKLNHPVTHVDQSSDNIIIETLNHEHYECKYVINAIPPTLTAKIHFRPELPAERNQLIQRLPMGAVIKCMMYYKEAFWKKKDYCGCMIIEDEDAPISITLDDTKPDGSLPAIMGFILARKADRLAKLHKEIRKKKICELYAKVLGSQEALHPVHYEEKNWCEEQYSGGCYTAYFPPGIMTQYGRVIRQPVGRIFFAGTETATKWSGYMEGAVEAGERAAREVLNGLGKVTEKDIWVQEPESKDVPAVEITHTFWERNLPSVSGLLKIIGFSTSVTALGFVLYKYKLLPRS
Procedure: Purified human MAO-A was dialyzed against 50 mM HEPES pH 7.5 for 1 h and concentrated to at least 40 μM before loading into the rapid-mixing device syringes. MAO-A (40 μM) was mixed with an equal volume of 50 mM HEPES pH 7.5 containing excess inactivating compound in the stopped-flow spectrophotometer (Applied Photophysics SX20) at 30 °C. For anaerobic experiments, the system was flushed with 10 mM dithionite before rinsing well with buffer containing 30 mM glucose, 1 U/mL glucose oxidase, and 24 U/mL catalase. Both the MAO-A and the compound to be added were flushed with argon before the addition of 30 mM glucose, 1 U/mL glucose oxidase, and 24 U/mL catalase to ensure anaerobiosis during the experiment. Absorbance changes were measured in triplicate at three wavelengths (410, 456, and 495 nm). The absorbance acquisition rate was set at 1000 Hz for the interval 0–0.5 s and 4 Hz for the interval 0.5–1000 s. The absorbance changes were analyzed using single or double exponential fits in the built-in software as appropriate.
Figure 7 Time courses for absorbance changes in MAO-A incubated anaerobically with propargylamine inactivators.

human MAO-B [1] = biological target: T2, human MAO-B (Homo sapiens, UniProt P27338); conditions: cited from earlier work
T2 construct: purchased Sigma-Aldrich (Dorset, UK); host or cells: insect cells (membranes)
T2 sequence (P27338 1-520): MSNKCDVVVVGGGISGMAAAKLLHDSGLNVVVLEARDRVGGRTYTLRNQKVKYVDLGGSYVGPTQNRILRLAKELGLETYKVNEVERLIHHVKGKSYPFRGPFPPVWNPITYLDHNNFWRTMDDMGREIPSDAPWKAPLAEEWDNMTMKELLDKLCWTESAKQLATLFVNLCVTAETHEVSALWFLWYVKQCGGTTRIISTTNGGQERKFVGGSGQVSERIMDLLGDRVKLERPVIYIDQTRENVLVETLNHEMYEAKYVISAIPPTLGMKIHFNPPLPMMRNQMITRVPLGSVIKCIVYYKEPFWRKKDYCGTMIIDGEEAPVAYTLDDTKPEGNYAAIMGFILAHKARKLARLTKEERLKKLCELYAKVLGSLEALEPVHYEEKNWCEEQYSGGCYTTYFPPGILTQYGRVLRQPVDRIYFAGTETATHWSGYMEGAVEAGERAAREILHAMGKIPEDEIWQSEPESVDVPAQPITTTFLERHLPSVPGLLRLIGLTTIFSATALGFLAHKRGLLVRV

MAO-A [2] = biological target: T3, MAO-A (Homo sapiens, UniProt P21397); assay: Partition ratio by long-term incubation; format: biochemical; design: made in house; host or cells: Saccharomyces cerevisiae; conditions: incubation at 30 °C up to 10 days
T3 sequence (P21397 1-527): T1 sequence (P21397 1-527)

MAO-A [3] = biological target: T3, MAO-A; assay: Activity remaining or recovered after anaerobic incubation with inactivator; format: biochemical; design: made in house; host or cells: Saccharomyces cerevisiae
Source text: MAO-A was made anaerobic by cycling with vacuum and argon. […] After the admission of oxygen to the cuvette, the 420 nm absorbance increased rapidly, accompanied by loss of activity.
In order to find a cause for the 600 nm absorbance, we considered whether oxidation could occur at either carbon adjacent to the amine nitrogen in MAO-A. (MAO-B is inactivated by F2MPA [19], so presumably, the normal allenyl imine product is formed by oxidation at the carbon between the amine and the propargyl group, CαP.) The alternative furfuryl imine product that would result from oxidation at the carbon on the other side of the amine nitrogen (between the amine and the furan ring, CαF) is shown in Scheme 2. Chemical analysis was attempted to detect the putative products of oxidation and molecular modeling to explore the interactions of F2MPA with MAO-A and MAO-B.

MAO-A [4] = biological target: T3, MAO-A; design: purchased Sigma-Aldrich (Dorset, UK); host or cells: insect cells (membranes); method as in PMID 27977122; conditions: cited from earlier work
MAO-A [5] = biological target: T3, MAO-A; assay: IC50 after 30 min preincubation, coupled assay with saturating substrate; format: biochemical; design: purchased Sigma-Aldrich (Dorset, UK); host or cells: insect cells (membranes); conditions: ratio of IC50 without/with 30 min preincubation
Procedure: (§1) The IC50 determined after a fixed incubation time has become a routine way to compare inhibition by new inactivators, although both binding and the rate of inactivator oxidation influence the measurement.
(§2) The direct spectrophotometric assay using purified MAO-A (30–50 nM) was added last to a 1 mL final volume of 50 mM potassium phosphate pH 7.5 containing inhibitor (0–100 μM) and 0.3 mM kynuramine (equivalent to 2× KM). The increase in absorbance was followed at 314 nm in a Shimadzu UV-2101 spectrophotometer. The coupled assay in black 96-well plates (Eppendorf UK Ltd., Stevenage, UK) used tyramine, Ampliflu™ Red (AR), horseradish peroxidase (HRP) and membrane-bound human MAO-A and MAO-B purchased from Sigma-Aldrich (Dorset, UK). Final concentrations were 50 μM AR, 1 U/mL HRP, and 1 nM enzyme. The substrate was tyramine either at 2× KM (0.8 mM for MAO-A or 0.32 mM for MAO-B) for reversible binding or at 1 mM to assess remaining active MAO after incubation with the inactivators.

human MAO-B [6] = biological target: T2, human MAO-B; format: biochemical
Procedure: as §1, §2

[7] = design: method as in PMID 16848670; conditions: depression; cited from earlier work
human MAO-B [8] = biological target: T2, human MAO-B; conditions: ratio of IC50 without/with 30 min preincubation; ref Malcomson et al. [40]; cited from earlier work
MAO-A [9] = biological target: T3, MAO-A; design: purchased Sigma-Aldrich (Dorset, UK); host or cells: insect cells (membranes); conditions: ratio of IC50 without/with 30 min preincubation; ref Malcomson et al. [40]; cited from earlier work
MAO-A [10] = biological target: T3, MAO-A; conditions: read-out: MAO-A IC50 AR Assay; without preincubation, tyramine 2× KM (0.8 mM); mean ± SD of 2–4 experiments
Procedure: (§3) The binding of these mechanism-based inhibitors can be assessed by measuring the inhibition without preincubation, adding the enzyme last to the assay mixture with both substrate and inhibitor. […] The IC50 is not an absolute parameter, but rather is a comparative measure that depends on the type of inhibition and the substrate concentration.
as §2
(§4) Ki values were calculated using the global Michaelis–Menten analysis in PRISM from initial rate data for 6 substrate concentrations (tyramine) at 5 inhibitor concentrations.

human MAO-B [11] = biological target: T2, human MAO-B; format: biochemical; conditions: without preincubation, tyramine 2× KM (0.32 mM); mean ± SD of 2–4 experiments; read-out: MAO-B IC50 AR Assay
Procedure: as §3, §2, §4

human MAO-B [12] = biological target: T2, human MAO-B; assay: Time-dependent inactivation, Kitz-Wilson analysis; format: biochemical; conditions: inactivation constant
Procedure: (§5) Rates (as relative fluorescence units per second, rfu/s) were analyzed as the log of the fractional activity remaining compared to control against time to obtain kobs.

MAO-A [13] = biological target: T3, MAO-A; conditions: read-out: MAO-A Ki Direct; ref Esteban et al. [18]; cited from earlier work
MAO-A [14] = biological target: T3, MAO-A; assay: Time-dependent inactivation, Kitz-Wilson analysis; format: biochemical; design: purchased Sigma-Aldrich (Dorset, UK); host or cells: insect cells (membranes)
Procedure: as §5

[15] = Figure S4, anaerobic stopped-flow, 30 C

For N[C@H]1C[C@@H]1c1ccccc1 [1S,2R-trans-2-phenylcyclopropylamine], the “times more potent in vitro than the other enantiomer” value (MAO) is listed as 60 times.

For C#CCN(C)Cc1ccco1 [F2MPA, N-(furan-2-ylmethyl)-N-methylprop-2-yn-1-amine], the “time for completion of biphasic decrease in absorbance at 495 nm” value (purified human MAO-A; F2MPA 2 mM, MAO-A […] μM, anaerobic) is given as “more than 21 h”, the “rate of anaerobic reduction of FAD (absorbance decrease at 495 nm)” value (purified human MAO-A; anaerobic) is given as 0.0034 ± 0.0009 min⁻¹ and the MAO-B kinact (human MAO-B [1]) is given as 0.61 min⁻¹. For the same compound, the “MAO-B kinact/KI” value (human MAO-B [1]) was 0.0045 min^−1μM^−1, the Ki (human MAO-B [1]; inactivation constant) was 135000 nM and the partition ratio (MAO-A [2]) was greater than 1000. The activity retained (MAO-A [3]; MAO-A incubated anaerobically […] with 0.5 mM) was 7%, the “activity restored by overnight aerobic dialysis” value (MAO-A [3]; after […] anaerobic incubation with 0.5 mM) was 88% and the MAO-A kinact (MAO-A [4]) was 0.087 min⁻¹. For the same compound, the “MAO-A kinact/KI” value (MAO-A [4]) was 0.0005 min^−1μM^−1 and the Ki (MAO-A [4]; inactivation constant) was 187000 nM.

For C#CCN(C)[C@H](C)Cc1ccccc1 [Selegiline, (2R)-N-methyl-1-phenyl-N-prop-2-ynylpropan-2-amine], the “rate of adduct formation (absorbance increase at 410 nm)” value (purified human MAO-A; anaerobic) was 0.016 ± 0.003 min⁻¹, the “rate of anaerobic reduction of FAD (absorbance decrease at 495 nm)” value (purified human MAO-A; anaerobic) was 0.019 ± 0.002 min⁻¹ and the “MAO-A Enhancement” value (MAO-A [5]) was 357.

For C#CCN(C)Cc1ccccc1 [Pargyline], the “MAO-B Enhancement” value (human MAO-B [6]; ratio of IC50 without/with 30 min preincubation) was 292, the “k, 410 nm (adduct)” value (purified human MAO-A; [15]) was 0.0043 s⁻¹ and the “k, 485 nm (reduction)” value (purified human MAO-A; [15]) was 0.0047 s⁻¹. The “rate of adduct formation (absorbance increase at 410 nm)” value (purified human MAO-A; anaerobic) was 0.26 ± 0.03 min⁻¹, the “rate of anaerobic reduction of FAD (absorbance decrease at 495 nm)” value (purified human MAO-A; anaerobic) was 0.28 ± 0.02 min⁻¹ and the “MAO-A Enhancement” value (MAO-A [5]) was 48.

In the case of NNCCc1ccccc1 [Phenelzine], the patient response rates [7] is given as “over 50%”.

In the case of N[C@H]1C[C@@H]1c1ccccc1 (racemic) [Tranylcypromine], the “MAO-B Enhancement” value (human MAO-B [8]) is listed as 54.7 ^a, the patient response rates [7] is listed as “over 50%” and the “MAO-A Enhancement” value (MAO-A [9]) is listed as 100 ^a.

C#CCN(C)Cc1cc2cc(OCCCC3CCN(Cc4ccccc4)CC3)ccc2n1C [ASS234, N-[[5-[3-(1-benzylpiperidin-4-yl)propoxy]-1-methylindol-2-yl]methyl]-N-methylprop-2-yn-1-amine] gave an IC50 (MAO-A [10]) of 33 ± 3 nM, an IC50 (human MAO-B [11]) of 3200 ± 410 nM and an IC50 (human MAO-B [6]; read-out: MAO-B IC50 after 30 min preincubation, human MAO in insect cell membranes, saturating substrate) of 120 ± 20 nM. For the same compound, the Ki (human MAO-B [12]) was 1740 nM, the “rate of anaerobic reduction of FAD (absorbance decrease at 495 nm)” value (purified human MAO-A; anaerobic) was 3.36 min⁻¹ and the Ki (MAO-A [13]) was 53 ± 14 nM. The “MAO-A Enhancement” value (MAO-A [5]) was 122 and the Ki (MAO-A [14]) was 45 nM.
